{"source": "patent US20050220996A1", "about": "“Process for coating a pharmaceutical particle” (priority 2002, published 2005)", "settings": "magnetic stirrer, Tween 80 as wetting agent (FIG. 11)", "excerpt": "The dissolution behavior of NaCl in water was studied by measuring conductivity as a function of time while stirring at a constant rate using a magnetic stirrer. To ensure complete wetting, Tween 80 was used as a wetting agent.", "data": [{"substance": "Sodium chloride [Uncoated]", "values": [{"measurement": "conductivity profile (dissolution in water)", "value": "instantaneous conductivity profile"}]}]}
